# Legend:
# LPC-lesioned spinal cord = assay: LPC focal demyelination of spinal cord, remyelination histology; format: in vivo, mouse; conditions: ifenprodil 10 mg per kg or tamoxifen 2 mg per kg, daily i.p., 8 days from day 4 after lesion
# [1] = mouse; cited from earlier work
# [2] = system: human myelinating cortical spheroids; assay: MyRF+ oligodendrocytes in human myelinating cortical spheroids; format: cell-based; conditions: spheroids treated 10 days from day 62, stained day 93
# Protocol: Spheroids at day 62 were treated with the indicated small molecules for 10 days and stained at day 93. Four spheroids were analyzed per treatment condition, and four fields per organoid were used in the quantitation. f) Representative images of spheroids. Nuclei are labeled with DAPI (blue), and oligodendrocytes are immunostained for MyRF (red). Scale bar, 100 μm.
# [3] = system: mouse brain sterol levels; assay: Analysis of mouse brain sterol levels (GC/MS); format: in vivo; conditions: ifenprodil 10 mg per kg, tamoxifen 2 mg per kg, daily, 3 days
# [4] = system: human induced pluripotent stem cell-derived cortical spheroids; assay: Sterol profiling in human iPSC-derived cortical spheroids; format: cell-based
smiles,measurement,setting,value
"CC(C(O)c1ccc(O)cc1)N1CCC(Cc2ccccc2)CC1 (centres unmarked) [ifenprodil, Ifenprodil]",remyelination of LPC lesion,LPC-lesioned spinal cord,remyelination was widespread throughout the lesion
same,blood brain barrier penetration,[1],known to cross the mouse blood brain barrier
same,formation of MyRF-positive human oligodendrocytes,[2],enhanced the formation of myelin regulatory factor (MyRF)-positive human oligodendrocytes
same,"8,9-unsaturated sterols in mouse CNS",[3],"induced significant accumulation of 8,9-unsaturated sterols in vivo in the CNS"
same,"8,9-unsaturated sterol accumulation in human cortical spheroids",[4],"led to 8,9-unsaturated sterol accumulation"

# — US12102644B2, “Compounds and methods of promoting myelination” (Case Western Reserve University, priority 2019, dated 2024)
